{"source": "patent US20260286302A1", "about": "“METHODS FOR PRODUCING A SUPER CENTRAL MEMORY CD8 T CELL SUBTYPE BY POLY(ADP-RIBOSE) POLYMERASE (PARP) INHIBITION AND USES THEREOF” (Georgetown University, priority 2023, published 2026)", "key": {"pMel-1 CD8 T cells [1]": {"system": "pMel-1 CD8 T cells", "format": "cell-based", "procedure": "For ACT experiments, CD8+ T cells from pMel-1 mice were activated with gp100 peptide with and without PARPi for 48 h. Based on their CD44 and CD62L expression, cells were sorted by FACS and transferred into 9-day-old B16F10 melanoma-bearing mice tumor-bearing mice (1×10^6 cells per mouse). Tumor growth and survival of mice were monitored.\nA total of 0.1-0.2×10^6 cells per sample were stained for Live/Dead staining followed by fixation and permeabilization. […] CD8^+ T cells from tumor samples were stained similarly. Data acquisition was performed on a BD LSR II flow cytometer using the software FACS Diva v.9.0. Results were analyzed using FlowJo software (TreeStar). […]"}, "WT CD8 T cells": {"system": "WT CD8 T cells", "experiment": "WT CD8 T cells activated with anti-CD3/CD28", "format": "cell-based, mouse", "conditions": "anti-CD3/CD28 activation in the presence of PARPi, 48 h"}, "pMel-1 CD8 T cells [2]": {"system": "pMel-1 CD8 T cells", "experiment": "Metabolomics and lipidomics of activated CD8 T cells", "format": "cell-based, mouse", "conditions": "PARPi-treated vs gp100 activated, 48 h", "procedure": "Targeted metabolomics method, developed in-house, was used to quantitate 270 endogenous metabolites using QTRAP® 7500 LC-MS/MS System (Sciex, MA, USA). For this purpose, 20 μL of PBS was added to the cell pellet and sample tube was plunged into dry ice for 30 seconds and 37° C. water bath for 90 seconds. This cycle was repeated for two more times and then samples were sonicated for 1 minute and 100 μL of extraction buffer (methanol/water 50/50) containing 200 ng/ml of debrisoquine (DBQ) as internal standard for positive mode and 200 ng/mL of 4-nitrobenzoic acid as internal standard for negative mode was added. The samples were vortexed for 1 min and kept on ice for 20 minutes followed by addition of 100 μL of ACN. The samples were incubated at −20° C. for 20 minutes for protein precipitation. The samples were centrifuged at 13,000 rpm for 20 minutes at 4° C. The supernatant was transferred to MS vial for LC-MS analysis. 20 μL of each prepared sample was mixed to generate the pooled QC sample.\nFive microliter of the prepared sample was injected onto a Kinetex 2.6 μm polar C18 100 Å 100×3.0 mm (Phenomenex, CA, USA) using SIL-30AC autosampler (Shimadzu) connected with a high flow LC-30AD solvent delivery unit (Shimadzu) and CBM-20A communication bus module (Shimadzu) online with QTRAP 5500 (Sciex, MA, USA) operating in positive and negative ion mode. A binary solvent comprising of water with 0.1% formic acid (solvent A) and acetonitrile with 0.1% formic acid (solvent B) was used. The extracted metabolites were resolved at 0.2 mL/min flow rate. The LC gradient conditions were as follows: Initial—100% A, 0% B for 2.1 minutes; 14 minutes—5% A, 95% B till 15 minutes; 15.1 minutes—100% A, 0% B till 20 minutes. The auto sampler and oven were kept at 15° C. and 30° C., respectively. Source and gas setting for the method were as follow: curtain gas=40, CAD gas=9, ion spray voltage=1700 V in positive mode and ion spray voltage=1600 V in negative mode, temperature=350° C., ion source gas 1=30 and ion source gas 2=50. […]"}, "pMel-1 CD8 T cells [3]": {"system": "pMel-1 CD8 T cells", "experiment": "Seahorse assays (OCR, ECAR)", "format": "cell-based, mouse", "conditions": "PARPi-induced TCM^sup vs gp100-induced TCM", "procedure": "CD8 T cells were activated with gp100 peptide with/without PARPi for 48 h, followed by mitochondrial stress tests (SeaHorse Bioscience), performed as per the manufacturer's specifications. OCR and ECAR were measured with an XFp flux analyzer (Seahorse Bioscience). For all assays, 160,000 cell per ml were plated onto culture plates using Cell-Tak (BD Biosciences). OCR and ECAR were measured in unbuffered DMEM (Agilent Biotechnologies) supplemented with 10 mM D-glucose (Sigma-Aldrich), 10 mM L-glutamine and 2.5 mM pyruvate, as indicated. The rates of FAO were determined in variously treated cells, as described above, using a Seahorse XF Palmitate-BSA FAO Reagent kit, used according to the manufacturer's instructions (Agilent Biotechnologies)."}, "SIRT-1/FOXO1": {"system": "SIRT-1/FOXO1", "experiment": "SIRT-1/FOXO1 signaling, Western blot and immunofluorescence", "format": "cell-based, mouse", "procedure": "pMel-1 CD8 T cells were activated with gp100 in the presence or absence of PARPi for 48 h containing glass coverslips. Cells were then washed with PBS (Mg^+ca^+), fixed for 5 min with 4% PFA and permeabilized in PBS/triton 1×. […] Finally, DAPI staining was applied. Images were acquired with a Leica TCS-SP5II upright confocal microscope (Leica Microsystems)."}}}
{"smiles": "O=C(c1cc(Cc2n[nH]c(=O)c3ccccc23)ccc1F)N1CCN(C(=O)C2CC2)CC1", "note": "[olaparib]", "values": [{"measurement": "toxicity (percentage of live cells)", "setting": "pMel-1 CD8 T cells [1]; 48 h time point", "value": "did not show any significant toxicity"}, {"measurement": "phenotype of CD44intCD62Lint intermediate population", "setting": "pMel-1 CD8 T cells [1]; 96 h after PARPi treatment", "value": "shifted more toward CD44^hiCD62L^hi population"}, {"measurement": "expression of memory markers Eomes, CCR7 and Bcl2", "setting": "pMel-1 CD8 T cells [1]; CD44hiCD62Lhi population compared to TCM, 48 h", "value": "significantly increased"}, {"measurement": "mitochondrial mass (MitoFM)", "setting": "pMel-1 CD8 T cells [1]; TCM^sup cells", "value": "increase"}, {"measurement": "PGC1α expression", "setting": "pMel-1 CD8 T cells [1]; TCM^sup cells vs TCM from gp100", "value": "increase"}, {"measurement": "level of γH2AX", "setting": "pMel-1 CD8 T cells [1]; activated pMel-1 CD8 T cells", "value": "increase"}, {"measurement": "IFNγ and Gzm B in PARPi-induced CD44hiCD62Lhi cells", "setting": "pMel-1 CD8 T cells [1]; compared to TCM, 48 h", "value": "significantly higher"}, {"measurement": "IFNγ and Gzm B expression on activated CD8 T cells", "setting": "pMel-1 CD8 T cells [1]; compared to gp100 alone, 48 h", "value": "significant increase"}, {"measurement": "cell cycle", "setting": "pMel-1 CD8 T cells [1]; gp100-activated, 48 h", "value": "arrested in the G2/M phase"}, {"measurement": "proliferation capacity (Ki67)", "setting": "pMel-1 CD8 T cells [1]; gp100-activated, 48 h", "value": "significantly reduced"}, {"measurement": "percentage of CD44hiCD62Lhi TCM CD8 T cell population", "setting": "pMel-1 CD8 T cells [1]; gp100-activated, 48 h of treatment, for PARPi concentration-dependent", "value": "increase"}, {"measurement": "generation of the CD44hiCD62Lhi population", "setting": "WT CD8 T cells", "value": "also seen"}, {"measurement": "TAGs (lipidomic analysis)", "setting": "pMel-1 CD8 T cells [2]", "value": "increased level"}, {"measurement": "metabolites related to TCA cycle (fumarate, malate, glutamate, FAD)", "setting": "pMel-1 CD8 T cells [2]", "value": "significantly increased"}, {"measurement": "top 50 differentially expressed metabolites", "setting": "pMel-1 CD8 T cells [2]", "value": "increased"}, {"measurement": "extracellular acidification rate (ECAR; Glycolysis)", "setting": "pMel-1 CD8 T cells [3]", "value": "decrease"}, {"measurement": "oxygen consumption rate (OCR; OXPHOS)", "setting": "pMel-1 CD8 T cells [3]", "value": "significant increase"}, {"measurement": "FOXO1 acetylation", "setting": "SIRT-1/FOXO1; PARPi-treated CD8 T cells", "value": "decrease"}, {"measurement": "SIRT-1 expression and activity", "setting": "SIRT-1/FOXO1; activated pMel-1 CD8 T cells", "value": "increased"}, {"measurement": "FOXO1 in the nucleus", "setting": "SIRT-1/FOXO1; immunofluorescence and Western blot, compared to gp100-activated cells", "value": "increase in accumulation and expression"}, {"measurement": "FOXO1 phosphorylation", "setting": "SIRT-1/FOXO1; total lysate", "value": "significant reduction"}]}
